# Biological target: CgiNAP2X1 (Magallana gigas, UniProt A0A8W8INI3)
# Test: stopped-flow CO2 hydration assay
# Format: biochemical
# Settings: not given
# Sequence of CgiNAP2X1 (A0A8W8INI3 23-318 limits assumed): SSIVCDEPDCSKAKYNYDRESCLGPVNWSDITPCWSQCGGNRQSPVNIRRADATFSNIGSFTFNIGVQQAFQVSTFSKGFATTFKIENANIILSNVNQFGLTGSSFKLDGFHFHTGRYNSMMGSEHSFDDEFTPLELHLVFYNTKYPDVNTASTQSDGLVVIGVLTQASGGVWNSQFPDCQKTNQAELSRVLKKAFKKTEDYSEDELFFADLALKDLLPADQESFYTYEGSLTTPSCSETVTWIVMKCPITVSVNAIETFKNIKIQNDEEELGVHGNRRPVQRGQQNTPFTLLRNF
row,Structure (SMILES),Ki [mM]
1,O=S(=O)(O)C(F)(F)F [CF3SO3^−],8.68
2,N#CO [CNO^−],3.11
3,Cl [Cl^−],10.8
4,S [HS^−],8.19
5,I [I^−],8.86
6,O=NO [NO2^−],7.14
7,N#CS [SCN^−],5.88
8,N#C[SeH] [SeCN^−],8.21
9,[O]=[Sn]([OH])[OH] [SnO3^2−],3.47
10,OB(O)c1ccccc1 [phenylboronic acid],0.072

# Same assay, conditions: read-out: KIs [mM] ^2 / CgiNAP2X1
row,Ki [mM],Structure (SMILES)
1,0.073,NS(=O)(=O)O [sulfamate]
2,0.076,NS(N)(=O)=O [sulfamide]

# Source: PMC5618409, “Sequence Analysis, Kinetic Constants, and Anion Inhibition Profile of the Nacrein-Like Protein (CgiNAP2X1) from the Pacific Oyster Magallana gigas (Ex-Crassostrea gigas)” (Marine Drugs, 2017)
